Source: patent US8835440B2, “Cyclic pyrimidin-4-carboxamides as CCR2 receptor antagonists for treatment of inflammation, asthma and COPD” (Boehringer Ingelheim International GmbH, priority 2008, dated 2014)

Molecular target: T1, CCR2 (Homo sapiens, UniProt P41597)
T1 construct: Membranes were prepared from THP-1 cells; endogenous in cells; host or cells: THP-1 cells (membrane preparation)
T1 sequence (P41597 1-360 isoform P41597-2): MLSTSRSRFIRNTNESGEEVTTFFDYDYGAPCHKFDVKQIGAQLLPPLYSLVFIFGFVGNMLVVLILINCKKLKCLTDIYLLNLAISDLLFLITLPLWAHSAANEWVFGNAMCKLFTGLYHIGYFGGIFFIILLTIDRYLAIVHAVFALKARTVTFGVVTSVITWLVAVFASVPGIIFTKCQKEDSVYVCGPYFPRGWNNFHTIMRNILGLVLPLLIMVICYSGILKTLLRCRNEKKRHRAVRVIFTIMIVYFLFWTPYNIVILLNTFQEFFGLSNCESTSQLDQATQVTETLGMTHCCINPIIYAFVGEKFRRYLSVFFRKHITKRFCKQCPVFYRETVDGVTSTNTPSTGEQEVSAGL
Experiment: CCR2 receptor membrane binding assay ([125I]MCP-1, THP-1 cell membranes, SPA beads)
Conditions: for remaining activity at 10 µM: @ 10 μM test compound, THP-1 membranes, read-out: CCR2 % ctrl @ 10 μM; for Ki: dissociation constant hKi, [125I]MCP-1 binding to THP-1 membranes
Procedure: The above exemplary substances have been tested for binding to CCR2 using a binding assay as outlined herein below:
THP-1 cells (human acute monocytic leukaemia cells) were cultured under standardized conditions at 37° C. and 5% CO2 in a humidified incubator. THP-1 cells were cultivated in RPMI 1640 medium (Gibco 21875) containing 1% MEM-NEAA (Gibso 11140) 2 mM L-glutamine, 1.5 g/L sodium bicarbonate, 4.5 g/L glucose, 10 mM HEPES and 1.0 mM sodium pyruvate, 90%; 10% fetal calf serum (FCS Gibco 10500-064).
Membranes were prepared from THP-1 cells. THP-1 cells were centrifuged at 300×g at 4° C. for 10 min. The cell pellet was resuspendet in Phosphate Buffer Saline (PBS, including 10 μM Pefabloc and a protease inhibitor mix ‘complete’, Boehringer Mannheim (1 tablet/50 ml)), to a concentration of […]. The membrane preparation was performed by disrupting the cells by nitrogen […] (at 50 bar, for 1 h) in a “Nitrogen Bombe” (Parr Instrument). Cell debris was removed by centrifugation (800×g at 4° C., 1 min). The supernatant was centrifuged at 80000×g, 4° C. for 30 min to sediment the cell membranes. Usually 50 mg of protein (Bradford assay) were yielded from 1×10E9 cells. The membranes were resuspendet in 25 mM HEPES, 25 mM MgCl2, 1 mM CaCl2, 10% Glycerine for storage in aliquots at −80° C. in 25 mM HEPES, 25 mM MgCl2, 1 mM CaCl2, 10% Glycerine and stored at −80° C.
Receptor Membrane Binding Assay:
Perkin Elmer NEX 332 Jod 125 MCP-1, Stock: 2200 Ci/mmol solved in 2000 μl assay buffer, stored at −20° C. THP-1 membrane were adjusted with 25 mM HEPES, pH 7.2; 5 mM MgCl2; 0.5 mM CaCl2; 0.2% BSA assay buffer to a concentration of […]. Amersham Biosciences PVT-WGA Beads (RPNQ0001) were adjusted with assay buffer to a concentration of 0.24 mg/30 μl. For preparation of the membrane-bead-suspension membranes and beads were incubated for 30 min at RT under rotation (60 rpm) with a ratio of 1:2. Test compounds dissolved in 100% DMSO to a concentration of 10 mM and are further diluted with 100% DMSO to 1 mM. All additional compound dilutions were obtained with assay buffer, final 1% DMSO. Compounds, membrane-bead-suspension and [125I]MCP-1 (ca. 25000 cpm/10 μl) were incubated. Bound radioactivity was determined by scintillation counter after 8 h. Determination of affinity of test compounds (dissociation constant hKi) is calculated by iterative fitting of experimental data using the “easy sys” program, which is based on law of mass action (Schittkowski K. (1994), Numerische Mathematik, Vol. 68, 129-142).

SMILES: Cc1c(Cc2ccc(C(C)(C)C)cc2)ncnc1C(=O)N1CCC(N2CCC(N(C)S(C)(=O)=O)CC2)CC1 [Example 268]
- remaining activity at 10 µM: 5%
- Ki: 0.119 µM

SMILES: Cc1ccc(CNc2ncnc(C(=O)N3CCC(N4CCC(O)CC4)CC3)c2C)cc1C [Example 31]
- remaining activity at 10 µM: 28%
- Ki: 0.79 µM

SMILES: Cc1c(NCc2ccc(Cl)c(Cl)c2)ncnc1C(=O)N1CCC(N2CCCC(F)C2)CC1 (stereo not shown) [Example 233]
- remaining activity at 10 µM: 8%
- Ki: 0.194 µM

SMILES: Cc1c(NCC2CCCCCC2)ncnc1C(=O)N1CCC(N2CCC(N(C)S(C)(=O)=O)CC2)CC1 [Example 159fa]
- Ki: 0.035 µM

SMILES: Cc1c(NCCc2ccc(Cl)c(Cl)c2)ncnc1C(=O)N1CCC(N2CCC(O)C2)CC1 (stereo not shown) [Example 241]
- remaining activity at 10 µM: 21%
- Ki: 0.522 µM

SMILES: Cc1c(NCC2CCC(c3ccccc3)CC2)ncnc1C(=O)N1CCC(N2CCC(O)CC2)CC1 (stereo not shown) [Example 121]
- remaining activity at 10 µM: 15%
- Ki: 0.147 µM

SMILES: Cc1c(NCC2CCN(c3ccccc3)C2)ncnc1C(=O)N1CCC(N2CCC(O)CC2)CC1 (stereo not shown) [Example 20]
- remaining activity at 10 µM: 24%
- Ki: 0.303 µM

SMILES: Cc1c(NC[C@@H]2CC[C@H](c3ccc(C(F)(F)F)cc3)O2)ncnc1C(=O)N1CCC(N2CCC(N(C)S(C)(=O)=O)CC2)CC1 [Example 159la]
- Ki: 0.019 µM

SMILES: CNC(=O)C1CCN(C2CCN(C(=O)c3ncnc(NCC4CCCC(c5ccc(Cl)cc5)C4)c3C)CC2)CC1 (stereo not shown) [Example 159ea]
- Ki: 0.007 µM

SMILES: Cc1c(NCc2cccc(-c3ccccc3)c2)ncnc1C(=O)N1CCC(N2CCCOCC2)CC1 [Example 243]
- remaining activity at 10 µM: 40%
- Ki: 1.61 µM

SMILES: Cc1c(NCc2ccc(C(F)(F)F)c(F)c2)ncnc1C(=O)N1CCC(N2CCC(O)CC2)CC1 [Example 10]
- remaining activity at 10 µM: 27%
- Ki: 0.65 µM

SMILES: CNS(=O)(=O)C1CCN(C2CCN(C(=O)c3ncnc(NCc4ccc(C(C)(C)C)cc4)c3C)CC2)CC1 [Example 221]
- remaining activity at 10 µM: 12%
- Ki: 0.172 µM

SMILES: Cc1ccc(C2CCC(CNc3nc(C)nc(C(=O)N4CCC(N5CCC(N(C)S(C)(=O)=O)CC5)CC4)c3C)O2)cc1 (stereo not shown) [Example 159oa]
- Ki: 0.029 µM

SMILES: CO[C@@H]1COCC[C@@H]1NC1CCN(C(=O)c2ncnc(NC[C@H]3CCC[C@@H](c4ccccc4)C3)c2C)CC1 [Example 275di]
- Ki: 0.001 µM

SMILES: Cc1c(NCc2ccc(Cl)c(Cl)c2)ncnc1C(=O)N1CCC(N2CCC(NS(C)(=O)=O)CC2)CC1 [Example 72]
- remaining activity at 10 µM: 7%
- Ki: 0.081 µM

SMILES: Cc1c(NCCCc2ccccc2)ncnc1C(=O)N1CCC(N2CCC(O)CC2)CC1 [Example 17]
- remaining activity at 10 µM: 18%
- Ki: 0.302 µM

SMILES: Cc1c(NCC2CC(c3ccccc3)CO2)ncnc1C(=O)N1CCC(N2CCC(N(C)S(C)(=O)=O)CC2)CC1 (stereo not shown) [Example 159eb]
- Ki: 0.072 µM

SMILES: Cc1c(NCc2cnc3ccccc3c2)ncnc1C(=O)N1CCC(N2CCC(N(C)S(C)(=O)=O)CC2)CC1 [Example 157]
- remaining activity at 10 µM: 23%
- Ki: 1.15 µM

SMILES: Cc1c(NCC2CCN(c3ccccc3)C2)ncnc1C(=O)N1CCC(N2CCC(N(C)S(C)(=O)=O)CC2)CC1 (stereo not shown) [Example 60]
- remaining activity at 10 µM: 5%
- Ki: 0.044 µM

SMILES: Cc1c(NCc2ccc(C(C)(C)C)cc2)ncnc1C(=O)N1CCC(NCC2CCCCO2)CC1 (stereo not shown) [Example 228gh]
- Ki: 4.07 µM

SMILES: CC(=O)N1CCC[C@@H](NC2CCN(C(=O)c3ncnc(NCc4ccc(C(C)(C)C)cc4)c3C)CC2)C1 [Example 228gc]
- Ki: 0.561 µM

SMILES: Cc1c(NCc2ccc(Cl)c(Cl)c2)ncnc1C(=O)N1CCC(N2CC[C@H](C(N)=O)C2)CC1 [Example 256]
- remaining activity at 10 µM: 25%
- Ki: 0.438 µM

SMILES: Cc1c(NCC2Cc3ccccc3C2)ncnc1C(=O)N1CCC(N2CCOCC2)CC1 [Example 46]
- remaining activity at 10 µM: 12%
- Ki: 0.225 µM

SMILES: Cc1c(NC[C@H]2CCC[C@@H](c3ccccc3)C2)ncnc1C(=O)N1CCC(N2CCC(N(C)S(C)(=O)=O)CC2)CC1 [Example 146]
- remaining activity at 10 µM: 7%
- Ki: 0.003 µM

SMILES: Cc1c(NCc2cccc(Cl)c2)ncnc1C(=O)N1CCC(N2CCC(O)CC2)CC1 [Example 123]
- remaining activity at 10 µM: 26%
- Ki: 0.542 µM

SMILES: Cc1ccc(CNc2ncnc(C(=O)N3CCC(N4CCC(N(C)S(C)(=O)=O)CC4)CC3)c2C)cc1Cl [Example 59]
- remaining activity at 10 µM: 5%
- Ki: 0.055 µM

SMILES: Cc1c(NCC2CCC(c3ccc(Cl)cc3)C2)ncnc1C(=O)N1CCC(N2CCC(N(C)S(C)(=O)=O)CC2)CC1 (stereo not shown) [Example 159c]
- Ki: 0.013 µM

SMILES: Cc1c(NCc2ccc(Cl)c(F)c2)ncnc1C(=O)N1CCC(N2CCOCC2)CC1 [Example 45]
- remaining activity at 10 µM: 17%
- Ki: 0.501 µM

SMILES: Cc1cc(CNc2ncnc(C(=O)N3CCC(N4CCC(O)CC4)CC3)c2C)ccc1F [Example 118]
- remaining activity at 10 µM: 41%
- Ki: 2.16 µM

SMILES: Cc1c(NCCc2ccc(F)c(F)c2)ncnc1C(=O)N1CCC(N2CCC(O)CC2)CC1 [Example 115]
- remaining activity at 10 µM: 33%
- Ki: 0.847 µM

SMILES: Cc1c(NCC2Cc3ccccc3C2)ncnc1C(=O)N1CCC(N2CCC(O)CC2)CC1 [Example 23]
- remaining activity at 10 µM: 7%
- Ki: 0.169 µM

SMILES: Cc1c(NCC2Cc3ccccc3C2)ncnc1C(=O)N1CCC(N2CCC(N(C)S(C)(=O)=O)CC2)CC1 [Example 61]
- remaining activity at 10 µM: 2%
- Ki: 0.046 µM

SMILES: CCS(=O)(=O)N(C)C1CCN(C2CCN(C(=O)c3ncnc(NCC4CCN(c5ccccc5)CC4)c3C)CC2)CC1 [Example 40]
- remaining activity at 10 µM: 9%
- Ki: 0.174 µM

SMILES: Cc1c(NCCOc2ccccc2)ncnc1C(=O)N1CCC(N2CCC(O)CC2)CC1 [Example 16]
- remaining activity at 10 µM: 40%
- Ki: 1.9 µM

SMILES: COC1CCN(C2CCN(C(=O)c3ncnc(NCc4ccc(C(C)(C)C)cc4)c3C)CC2)CC1 [Example 208]
- remaining activity at 10 µM: 7%
- Ki: 0.099 µM

SMILES: Cc1c(NCc2ccc(C(C)(C)C)cc2)ncnc1C(=O)N1CCC(N2CCC(S(=O)(=O)N(C)C)CC2)CC1 [Example 196]
- remaining activity at 10 µM: 19%
- Ki: 0.666 µM

SMILES: Cc1c(NCc2ccc(Cl)c(Cl)c2)ncnc1C(=O)N1CCC(N2CCC(S(N)(=O)=O)CC2)CC1 [Example 228]
- remaining activity at 10 µM: 16%
- Ki: 0.331 µM

SMILES: Cc1nc(NCc2ccc(C(C)(C)C)cc2)c(C)c(C(=O)N2CCC(N3CCC(S(=O)(=O)N(C)C)CC3)CC2)n1 [Example 207]
- remaining activity at 10 µM: 35%
- Ki: 1.18 µM

SMILES: Cc1c(NCCc2ccc(C(C)(C)C)cc2)ncnc1C(=O)N1CCC(N2CCC(N(C)S(C)(=O)=O)CC2)CC1 [Example 153]
- remaining activity at 10 µM: 1%
- Ki: 0.027 µM

SMILES: Cc1c(NCC2CCC(C(C)(C)C)CC2)ncnc1C(=O)N1CCC(N2CCC(N(C)S(C)(=O)=O)CC2)CC1 (stereo not shown) [Example 159o]
- Ki: 0.012 µM

SMILES: Cc1c(NCc2ccc(C(F)(F)F)c(Cl)c2)ncnc1C(=O)N1CCC(N2CCCCC2)CC1 [Example 133]
- remaining activity at 10 µM: 15%
- Ki: 0.205 µM

SMILES: Cc1c(NCc2ccc(C(C)(C)C)cc2)ncnc1C(=O)N1CCC(N[C@@H]2CCCN(S(C)(=O)=O)C2)CC1 [Example 228gd]
- Ki: 1.09 µM

SMILES: CO[C@@H]1COCC[C@@H]1NC1CCN(C(=O)c2ncnc(NC[C@H]3C[C@@H](c4ccccc4)C3)c2C)CC1 [Example 275dg]
- Ki: 0.012 µM

SMILES: Cc1nc(NCc2ccc(Cl)c(Cl)c2)c(C)c(C(=O)N2CCC(N3CCC(N(C)S(C)(=O)=O)CC3)CC2)n1 [Example 82]
- remaining activity at 10 µM: 4%
- Ki: 0.043 µM

SMILES: CCN(C1CCN(C2CCN(C(=O)c3ncnc(NCc4ccc(Cl)c(Cl)c4)c3C)CC2)CC1)S(C)(=O)=O [Example 160]
- remaining activity at 10 µM: 3%
- Ki: 0.043 µM

SMILES: Cc1c(NCC2CCCC(c3ccc(Cl)cc3)C2)ncnc1C(=O)N1CCC(N2CCC(NS(C)(=O)=O)CC2)CC1 (stereo not shown) [Example 159ca]
- Ki: 0.003 µM
